Measured values taken from patent US8993614B2, “Substituted pyrrolidine-2-carboxamides” (Hoffmann-La Roche Inc., priority 2012, dated 2015).

Key:
in vivo = conditions: iv, 4.37 mg/kg
physchem = conditions: aqueous medium

AUC(0-inf) (in vivo): 21600 ng·h/mL
AUC(0-t) (in vivo): 20900 ng·h/mL
Cmax (in vivo): 4390 ng/mL
half-life (in vivo): 5.07 h
solubility (physchem): < 1 µg/mL
SMILES: COc1cc(C(=O)O)ccc1NC(=O)[C@@H]1N[C@@H](CC(C)(C)C)[C@](C#N)(c2ccc(Cl)cc2F)[C@H]1c1cccc(Cl)c1F [Compound B, 4-((2R,3S,4R,5S)-3-(3-chloro-2-fluorophenyl)-4-(4-chloro-2-fluorophenyl)-4-cyano-5-neopentylpyrrolidine-2-carboxamido)-3-methoxybenzoic acid]
